Legend:
human H4 receptor = target: T1, human H4 receptor (Homo sapiens, UniProt Q9H3N8); experiment: [3H]Histamine binding on membranes of CHO cells stably expressing human H4 receptor
T1 construct: expressed in transfected cells
Procedure, shortened: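 Nonspecific signal was taken as that remaining with 10 μM JNJ 7777120 present. Assays contained 20 μg CHO-derived hH4 membrane protein in Tris/HCl–EDTA buffer (pH 7.4) and were terminated on polyethyleneimine-soaked filters, with bound tritium quantified by scintillation.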

Row | Ki or IC50 activity class (human H4 receptor) [nM] | melting point [°C] | SMILES
1 | < 300 | 202 | CN1CCC(NC(c2cccc(N=[N+]=[N-])c2)c2nc3ccccc3[nH]2)CC1 (centres unmarked) [Example 132, [(3-azidophenyl)(1H-benzimidazol-2-yl)methyl](1-methylpiperidin-4-yl)amine]
2 | < 300 | 91 | CN1CCC(OC(c2nc3ccccc3[nH]2)c2ccc(C(F)(F)F)cc2F)CC1 (centres unmarked) [Example 540]
3 | < 30 | 170 | CN1CCC(OC(c2cccc(SCCNC(=N)N)c2)c2nc3cc(F)ccc3[nH]2)CC1 (centres unmarked) [Example 437, N-(2-{3-[(5-fluoro-1H-benzimidazol-2-yl)(1-methylpiperidin-4-yloxy)methyl]phenylsulfanyl}ethyl)guanidine]
4 | < 300 | 110 | COc1ccc(-c2cccc(C(NC3CCN(C)CC3)c3nc4ccccc4[nH]3)c2)cc1 (centres unmarked) [Example 222, [(1H-benzimidazol-2-yl)(4′-methoxy-biphenyl-3-yl)methyl](1-methylpiperidin-4-yl)amine]
5 | < 1000 | 80 | CN1CCC(OC(c2cccc(SC(C)(C)CCO)c2)c2nc3ccccc3[nH]2)CC1 (centres unmarked) [Example 235, 3-{3-[(1H-benzimidazol-2-yl)(1-methylpiperidin-4-yloxy)methyl]phenylsulfanyl}-3-methyl-butan-1-ol]
6 | < 1000 | 189 | CN1CC=C(SC(c2cccc(Br)c2)c2nc3ccccc3[nH]2)CC1 (centres unmarked) [Example 530, 2-[(3-bromophenyl)(1-methyl-1,2,3,6-tetrahydropyridin-4-ylsulfanyl)methyl]-1H-benzimidazole]
7 | < 30 | 76 | CN1CCC(OC(c2cccc(OCCN)c2)c2nc3ccccc3s2)CC1 (centres unmarked) [Example 271, 2-{3-[benzothiazol-2-yl(1-methylpiperidin-4-yloxy)methyl]phenoxy}ethylamine]
8 | < 30 | 65 | CN1CCC(OC(c2cccc(SCCNC(=N)NC#N)c2)c2nc3ccccc3[nH]2)CC1 (centres unmarked) [Example 318, N-(2-{3-[(1H-benzimidazol-2-yl)(1-methylpiperidin-4-yloxy)methyl]phenylsulfanyl}ethyl)-N′-cyanoguanidine]
9 | < 1000 | 53 | CN1CCC(OC(c2ccccc2)c2nc3ccccc3[nH]2)C1 (centres unmarked) [Example 272, 2-[(1-methylpyrrolidin-3-yloxy)phenyl-methyl]-1H-benzimidazole]
10 | < 300 | 60 | CN1CCC(OC(c2cccc(SCCCCO)c2)c2nc3cc(F)c(F)cc3[nH]2)CC1 (centres unmarked) [Example 470]
11 | < 300 | 221 | CN1CCC(OC(c2ccccc2)c2nc3cc(Cl)c(Cl)cc3[nH]2)CC1 (centres unmarked) [Example 165, 5,6-dichloro-2-[(1-methylpiperidin-4-yloxy)phenylmethyl]-1H-benzimidazole]
12 | < 30 | 90 | Cc1ccc(C(OC2CCN(C)CC2)c2nc3cc(F)ccc3[nH]2)c(F)c1 (centres unmarked) [Example 548]
13 | < 30 | 118 to 120 | CN1CCC(OC(c2nc3ccccc3[nH]2)c2ccccc2O)CC1 (centres unmarked) [Example 561, 2-[(1H-benzimidazol-2-yl)(1-methylpiperidin-4-yloxy)methyl]phenol]
14 | < 30 | 181 | CN1CCC(OC(c2nc3ccccc3[nH]2)c2ccccc2F)CC1 (centres unmarked) [Example 167, 2-[(2-fluorophenyl)(1-methylpiperidin-4-yloxy)methyl]-1H-benzimidazole]
15 | < 30 | 201 | CN1CCC(OC(c2cccc(O)c2)c2nc3ccccc3s2)CC1 (centres unmarked) [Example 62, 3-[benzothiazol-2-yl(1-methylpiperidin-4-yloxy)methyl]phenol]
16 | < 300 | 115 | CN1CCC(OC(c2ccccc2)c2nc3ccccc3s2)CC1 (centres unmarked) [Example 1, 2-[(1-methylpiperidin-4-yloxy)phenylmethyl]benzothiazole]
17 | < 30 | 90 | CN1CCC(OC(c2cccc(-c3ccc(OC(F)(F)F)cc3)c2)c2nc3ccccc3[nH]2)CC1 (centres unmarked) [Example 182, 2-[(1-methylpiperidin-4-yloxy)(4′-trifluoromethoxybiphenyl-3-yl)methyl]-1H-benzimidazole]
18 | < 300 | 185 | COc1ccc(F)c(C(OC2CCN(C)CC2)c2nc3ccccc3[nH]2)c1F (centres unmarked) [Example 534, 2-[(2,6-difluoro-3-methoxyphenyl)(1-methylpiperidin-4-yloxy)methyl]-1H-benzimidazole]
19 | < 1000 | 142 | CN1CCC(OC(c2nc3ccccc3[nH]2)c2cc(F)cc(F)c2O)CC1 (centres unmarked) [Example 579]
20 | < 1000 | 183 | Cc1ccc(C(NC2CCN(C)CC2)c2nc3ccccc3[nH]2)cc1 (centres unmarked) [Example 273, [(1H-benzimidazol-2-yl)-p-tolyl-methyl](1-methylpiperidin-4-yl)amine]
21 | < 30 | 145 | Cc1ccc(C(OC2CCN(C)CC2)c2nc3ccccc3[nH]2)c(O)c1 (centres unmarked) [Example 574]
22 | < 300 | 97 | CN1CCC(OC(c2cccc(OCCCN)c2)c2nc3ccccc3[nH]2)CC1 (centres unmarked) [Example 327, 3-{3-[(1H-benzimidazol-2-yl)(1-methylpiperidin-4-yloxy)methyl]phenoxy}propylamine]

Row | Ki or IC50 activity class (human H4 receptor) [nM] | melting point [°C] | SMILES
23 | < 300 | 61 | CN1CCC(COC(c2cccc(Br)c2)c2nc3ccccc3[nH]2)C1 (centres unmarked) [Example 414, 2-[(3-bromo-phenyl)(1-methylpyrrolidin-3-ylmethoxy)methyl]-1H-benzimidazole]
24 | < 30 | 204 | CN1CCC(OC(c2nc3ccccc3[nH]2)c2cc(OCC(F)(F)F)ccc2F)CC1 (centres unmarked) [Example 522]
25 | < 30 | 120 | CN1CCC(OC(c2nc3ccccc3[nH]2)c2cc(Cc3ccccc3)ccc2O)CC1 (centres unmarked) [Example 596]
26 | < 300 | 213 | CN1CCC(OC(c2nc3ccccc3[nH]2)c2ccccc2Br)CC1 (centres unmarked) [Example 262, 2-[(2-bromophenyl)(1-methylpiperidin-4-yloxy)methyl]-1H-benzimidazole]
27 | < 300 | 182 | COc1cccc(C(NC2CCN(C)CC2)c2nc3ccccc3[nH]2)c1 (centres unmarked) [Example 70, [(1H-benzimidazol-2-yl)(3-methoxyphenyl)methyl](1-methylpiperidin-4-yl)amine]
28 | < 300 | 114 | CN1CCC(OC(c2nc3ccccc3[nH]2)c2cc(OCCCF)ccc2O)CC1 (centres unmarked) [Example 606]
29 | < 300 | 88 | CN1CCC(NC(c2cccc(OCC3CCCCC3)c2)c2nc3ccccc3[nH]2)CC1 (centres unmarked) [Example 73, [(1H-benzimidazol-2-yl)(3-cyclohexylmethoxyphenyl)methyl](1-methylpiperidin-4-yl)amine]
30 | < 300 | 119 | Cc1cccc(C(OC2CCN(C)CC2)c2nc3ccccc3[nH]2)c1 (centres unmarked) [Example 164, 2-[(1-methylpiperidin-4-yloxy)(m-tolyl)methyl]-1H-benzimidazole]
31 | < 30 | 90 | CN1CCC(OC(c2nc3cc(F)ccc3[nH]2)c2cc(C#CCCCN)ccc2F)CC1 (centres unmarked) [Example 558]
32 | < 300 | 198 | CC(=O)c1cccc(C(NC2CCN(C)CC2)c2nc3ccccc3[nH]2)c1 (centres unmarked) [Example 90, 1-{3-[(1H-benzimidazol-2-yl)(1-methylpiperidin-4-ylamino)methyl]phenyl}ethanone]
33 | < 300 | 92 | Cc1ccc(C(OC2CCN(C)CC2)c2nc3ccccc3[nH]2)cc1F (centres unmarked) [Example 554]
34 | < 30 | 82 | CN1CCC(NC(c2cccc(OC(F)(F)F)c2)c2nc3ccccc3[nH]2)CC1 (centres unmarked) [Example 60, [(1H-benzimidazol-2-yl)(3-trifluoromethoxyphenyl)methyl](1-methylpiperidin-4-yl)amine]
35 | < 30 | 78 | CN1CCC(NC(c2cccc(OCc3ccccc3)c2)c2nc3ccccc3[nH]2)CC1 (centres unmarked) [Example 65, [(1H-benzimidazol-2-yl)(3-benzyloxyphenyl)methyl](1-methylpiperidin-4-yl)amine]
36 | < 30 | 97 | Cc1c(F)ccc(C(OC2CCN(C)CC2)c2nc3ccccc3[nH]2)c1O (centres unmarked) [Example 623]
37 | < 30 | 232 | CN1CCC(OC(c2nc3ccccc3[nH]2)c2cc(Br)ccc2F)CC1 (centres unmarked) [Example 555]
38 | < 30 | 146 | Cc1cc(F)cc(O)c1C(OC1CCN(C)CC1)c1nc2ccccc2[nH]1 (centres unmarked) [Example 600]
39 | < 30 | 128 | CN1CCC(OC(c2ccc3c(c2)OCCC3)c2nc3ccccc3[nH]2)CC1 (centres unmarked) [Example 543]
40 | < 300 | 95 | CN1CCC(OC(c2cccc(-c3ccc4c(c3)OCO4)c2)c2nc3ccccc3[nH]2)CC1 (centres unmarked) [Example 184, 2-[(3-benzo[1,3]dioxol-5-ylphenyl)(1-methylpiperidin-4-yloxy)methyl]-1H-benzimidazole]
41 | < 300 | 144 | Cc1cc(F)c(O)c(C(OC2CCN(C)CC2)c2nc3ccccc3[nH]2)c1 (centres unmarked) [Example 595]
42 | < 30 | 108 | CN1CCC(NC(c2cccc(-c3ccco3)c2)c2nc3ccccc3[nH]2)CC1 (centres unmarked) [Example 144, [(1H-benzimidazol-2-yl)(3-furan-2-ylphenyl)methyl](1-methylpiperidin-4-yl)amine]
43 | < 1000 | 161 | CN1CCC(OC(c2nc3ccccc3[nH]2)c2cc(Cl)cc(Cl)c2O)CC1 (centres unmarked) [Example 580]

From patent US8802664B2 (Bioproject, priority 2010, dated 2014)
